Experiments:
Assay in all cases: KinaseProfiler off-target kinase profiling
Format in all cases: biochemical
Settings in all cases: 10 μM, ATP near Km
p38gamma = target: T1, p38gamma (Homo sapiens, UniProt P53778)
T1 construct: purchased Millipore, Inc. (KinaseProfiler service)
Summary of the method: (§1)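 Each kinase is assayed with ATP at roughly its own Km, and the compound is added at 10 μM. Two replicates are run; their average is expressed relative to untreated control (POC).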

TEC Activated = target: T2, TEC Activated (Homo sapiens, UniProt P42680)
T2 construct: purchased Millipore, Inc. (KinaseProfiler service)
Summary of the method: as §1

CLK2 = target: T3, CLK2 (Homo sapiens, UniProt P49760)
T3 construct: purchased Millipore, Inc. (KinaseProfiler service)
Summary of the method: as §1

CDK9/cyclinT1 = target: T4, CDK9/cyclinT1 (Homo sapiens, UniProt P50750)
T4 construct: purchased Millipore, Inc. (KinaseProfiler service)
Summary of the method: as §1

PAK6 = target: T5, PAK6 (Homo sapiens, UniProt Q9NQU5)
T5 construct: purchased Millipore, Inc. (KinaseProfiler service)
Summary of the method: as §1

CDK1/cyclinB = target: T6, CDK1/cyclinB (Homo sapiens, UniProt P06493)
T6 construct: purchased Millipore, Inc. (KinaseProfiler service)
Summary of the method: as §1

TSSK1 = target: T7, TSSK1 (Homo sapiens, UniProt Q9BXA7)
T7 construct: purchased Millipore, Inc. (KinaseProfiler service)
Summary of the method: as §1

CDK6/cyclinD3 = target: T8, CDK6/cyclinD3 (Homo sapiens, UniProt Q00534)
T8 construct: purchased Millipore, Inc. (KinaseProfiler service)
Summary of the method: as §1

JNK2alpha2 = target: T9, JNK2alpha2 (Homo sapiens, UniProt P45984)
T9 construct: purchased Millipore, Inc. (KinaseProfiler service)
Summary of the method: as §1

Lck = target: T10, Lck (Homo sapiens, UniProt P06239)
T10 construct: purchased Millipore, Inc. (KinaseProfiler service)
Summary of the method: as §1

AURKA = target: T11, AURKA (Homo sapiens, UniProt O14965)
T11 construct: purchased Millipore, Inc. (KinaseProfiler service)
Summary of the method: as §1

mTOR/FKBP12 = target: T12, mTOR/FKBP12 (Homo sapiens, UniProt P42345)
T12 construct: purchased Millipore, Inc. (KinaseProfiler service)
Summary of the method: as §1

MuSK = target: T13, MuSK (Homo sapiens, UniProt O15146)
T13 construct: purchased Millipore, Inc. (KinaseProfiler service)
Summary of the method: as §1

GSK3alpha = target: T14, GSK3alpha (Homo sapiens, UniProt P49840)
T14 construct: purchased Millipore, Inc. (KinaseProfiler service)
Summary of the method: as §1

FGFR1 = target: T15, FGFR1 (Homo sapiens, UniProt P11362)
T15 construct: purchased Millipore, Inc. (KinaseProfiler service)
Summary of the method: as §1

DYRK2 = target: T16, DYRK2 (Homo sapiens, UniProt Q92630)
T16 construct: purchased Millipore, Inc. (KinaseProfiler service)
Summary of the method: as §1

Flt4 = target: T17, Flt4 (Homo sapiens, UniProt P35916)
T17 construct: purchased Millipore, Inc. (KinaseProfiler service)
Summary of the method: as §1

HIPK1 = target: T18, HIPK1 (Homo sapiens, UniProt Q86Z02)
T18 construct: purchased Millipore, Inc. (KinaseProfiler service)
Summary of the method: as §1

MKK6 = target: T19, MKK6 (Homo sapiens, UniProt P52564)
T19 construct: purchased Millipore, Inc. (KinaseProfiler service)
Summary of the method: as §1

EphA3 = target: T20, EphA3 (Homo sapiens, UniProt P29320)
T20 construct: purchased Millipore, Inc. (KinaseProfiler service)
Summary of the method: as §1

CAMK2d = target: T21, CAMK2d (Homo sapiens, UniProt Q13557)
T21 construct: purchased Millipore, Inc. (KinaseProfiler service)
Summary of the method: as §1

EphA1 = target: T22, EphA1 (Homo sapiens, UniProt P21709)
T22 construct: purchased Millipore, Inc. (KinaseProfiler service)
Summary of the method: as §1

MSK2 = target: T23, MSK2 (Homo sapiens, UniProt O75676)
T23 construct: purchased Millipore, Inc. (KinaseProfiler service)
Summary of the method: as §1

DDR2 = target: T24, DDR2 (Homo sapiens, UniProt Q16832)
T24 construct: purchased Millipore, Inc. (KinaseProfiler service)
Summary of the method: as §1

ErbB4 = target: T25, ErbB4 (Homo sapiens, UniProt Q15303)
T25 construct: purchased Millipore, Inc. (KinaseProfiler service)
Summary of the method: as §1

CAMK4 = target: T26, CAMK4 (Homo sapiens, UniProt Q16566)
T26 construct: purchased Millipore, Inc. (KinaseProfiler service)
Summary of the method: as §1

PKCiota = target: T27, PKCiota (Homo sapiens, UniProt P41743)
T27 construct: purchased Millipore, Inc. (KinaseProfiler service)
Summary of the method: as §1

STK33 = target: T28, STK33 (Homo sapiens, UniProt Q9BYT3)
T28 construct: purchased Millipore, Inc. (KinaseProfiler service)
Summary of the method: as §1

Rse = target: T29, Rse (Homo sapiens, UniProt Q06418)
T29 construct: purchased Millipore, Inc. (KinaseProfiler service)
Summary of the method: as §1

GRK5 = target: T30, GRK5 (Homo sapiens, UniProt P34947)
T30 construct: purchased Millipore, Inc. (KinaseProfiler service)
Summary of the method: as §1

JNK3 = target: T31, JNK3 (Homo sapiens, UniProt P53779)
T31 construct: purchased Millipore, Inc. (KinaseProfiler service)
Summary of the method: as §1

PRK2 = target: T32, PRK2 (Homo sapiens, UniProt Q16513)
T32 construct: purchased Millipore, Inc. (KinaseProfiler service)
Summary of the method: as §1

Syk = target: T33, Syk (Homo sapiens, UniProt P43405)
T33 construct: purchased Millipore, Inc. (KinaseProfiler service)
Summary of the method: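 Read-out: percent of control, mean of duplicate wells. Compound at 10 μM; ATP set close to each kinase's Km.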

TAO2 = target: T34, TAO2 (Homo sapiens, UniProt Q9UL54)
T34 construct: purchased Millipore, Inc. (KinaseProfiler service)
Summary of the method: as §1

KDR = target: T35, KDR (Homo sapiens, UniProt P35968)
T35 construct: purchased Millipore, Inc. (KinaseProfiler service)
Summary of the method: as §1

CDK2/cyclinA = target: T36, CDK2/cyclinA (Homo sapiens, UniProt P24941)
T36 construct: purchased Millipore, Inc. (KinaseProfiler service)
Summary of the method: as §1

CHK2 = target: T37, CHK2 (Homo sapiens, UniProt O96017)
T37 construct: purchased Millipore, Inc. (KinaseProfiler service)
Summary of the method: as §1

ROCK-II = target: T38, ROCK-II (Homo sapiens, UniProt O75116)
T38 construct: purchased Millipore, Inc. (KinaseProfiler service)
Summary of the method: as §1

Plk3 = target: T39, Plk3 (Homo sapiens, UniProt Q9H4B4)
T39 construct: purchased Millipore, Inc. (KinaseProfiler service)
Summary of the method: as §1

eEF-2K = target: T40, eEF-2K (Homo sapiens, UniProt O00418)
T40 construct: purchased Millipore, Inc. (KinaseProfiler service)
Summary of the method: as §1

ITK = target: T41, ITK (Homo sapiens, UniProt Q08881)
T41 construct: purchased Millipore, Inc. (KinaseProfiler service)
Summary of the method: as §1

T32 sequence (Q16513 whole entry): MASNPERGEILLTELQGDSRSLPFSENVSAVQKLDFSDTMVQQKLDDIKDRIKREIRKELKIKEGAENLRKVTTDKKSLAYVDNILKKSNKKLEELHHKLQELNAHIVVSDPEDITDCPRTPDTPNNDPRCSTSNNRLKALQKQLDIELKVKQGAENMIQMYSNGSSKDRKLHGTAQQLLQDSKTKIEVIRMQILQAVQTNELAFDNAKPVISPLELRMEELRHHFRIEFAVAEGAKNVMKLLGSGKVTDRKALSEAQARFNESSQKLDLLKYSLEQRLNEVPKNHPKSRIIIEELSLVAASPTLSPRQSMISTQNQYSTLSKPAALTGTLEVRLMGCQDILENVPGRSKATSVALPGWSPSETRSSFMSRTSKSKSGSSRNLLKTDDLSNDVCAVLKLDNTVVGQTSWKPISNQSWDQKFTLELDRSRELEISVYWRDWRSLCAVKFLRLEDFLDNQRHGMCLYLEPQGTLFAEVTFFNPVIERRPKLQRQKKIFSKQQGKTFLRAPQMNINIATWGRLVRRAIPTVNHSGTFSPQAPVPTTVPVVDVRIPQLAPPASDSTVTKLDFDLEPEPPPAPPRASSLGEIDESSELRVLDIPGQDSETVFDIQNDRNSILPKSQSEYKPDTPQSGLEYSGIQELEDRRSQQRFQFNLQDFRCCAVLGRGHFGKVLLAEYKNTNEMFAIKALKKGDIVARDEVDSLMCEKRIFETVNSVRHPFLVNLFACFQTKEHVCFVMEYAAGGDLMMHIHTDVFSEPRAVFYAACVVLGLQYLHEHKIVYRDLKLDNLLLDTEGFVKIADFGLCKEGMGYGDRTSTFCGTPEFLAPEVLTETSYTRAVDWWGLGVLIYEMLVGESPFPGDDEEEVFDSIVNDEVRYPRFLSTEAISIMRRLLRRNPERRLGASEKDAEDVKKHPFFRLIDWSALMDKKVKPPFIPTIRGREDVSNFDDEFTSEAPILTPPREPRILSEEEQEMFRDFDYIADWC
T13 sequence (O15146 24-869): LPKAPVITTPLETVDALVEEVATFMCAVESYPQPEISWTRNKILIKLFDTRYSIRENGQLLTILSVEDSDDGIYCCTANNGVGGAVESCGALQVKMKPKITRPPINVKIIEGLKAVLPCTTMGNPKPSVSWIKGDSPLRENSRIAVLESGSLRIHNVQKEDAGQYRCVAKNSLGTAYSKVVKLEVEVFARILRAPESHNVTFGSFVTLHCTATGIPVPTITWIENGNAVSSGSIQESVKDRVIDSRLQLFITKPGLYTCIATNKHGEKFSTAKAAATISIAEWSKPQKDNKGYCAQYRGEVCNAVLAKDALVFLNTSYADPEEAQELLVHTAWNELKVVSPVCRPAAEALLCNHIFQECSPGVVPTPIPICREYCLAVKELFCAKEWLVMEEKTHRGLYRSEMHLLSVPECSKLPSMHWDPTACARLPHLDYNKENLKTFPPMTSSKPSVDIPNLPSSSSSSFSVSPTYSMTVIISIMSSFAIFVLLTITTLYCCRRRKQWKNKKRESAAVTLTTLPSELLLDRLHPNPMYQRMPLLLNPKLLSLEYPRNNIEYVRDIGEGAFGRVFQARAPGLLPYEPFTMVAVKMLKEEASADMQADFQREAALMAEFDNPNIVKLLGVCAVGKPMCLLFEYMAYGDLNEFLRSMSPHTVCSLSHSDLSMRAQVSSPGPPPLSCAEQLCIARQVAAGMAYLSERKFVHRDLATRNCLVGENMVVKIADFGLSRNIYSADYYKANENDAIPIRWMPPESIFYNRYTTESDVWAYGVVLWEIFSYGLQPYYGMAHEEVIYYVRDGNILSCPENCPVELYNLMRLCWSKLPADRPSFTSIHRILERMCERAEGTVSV
T16 sequence (Q92630 whole entry): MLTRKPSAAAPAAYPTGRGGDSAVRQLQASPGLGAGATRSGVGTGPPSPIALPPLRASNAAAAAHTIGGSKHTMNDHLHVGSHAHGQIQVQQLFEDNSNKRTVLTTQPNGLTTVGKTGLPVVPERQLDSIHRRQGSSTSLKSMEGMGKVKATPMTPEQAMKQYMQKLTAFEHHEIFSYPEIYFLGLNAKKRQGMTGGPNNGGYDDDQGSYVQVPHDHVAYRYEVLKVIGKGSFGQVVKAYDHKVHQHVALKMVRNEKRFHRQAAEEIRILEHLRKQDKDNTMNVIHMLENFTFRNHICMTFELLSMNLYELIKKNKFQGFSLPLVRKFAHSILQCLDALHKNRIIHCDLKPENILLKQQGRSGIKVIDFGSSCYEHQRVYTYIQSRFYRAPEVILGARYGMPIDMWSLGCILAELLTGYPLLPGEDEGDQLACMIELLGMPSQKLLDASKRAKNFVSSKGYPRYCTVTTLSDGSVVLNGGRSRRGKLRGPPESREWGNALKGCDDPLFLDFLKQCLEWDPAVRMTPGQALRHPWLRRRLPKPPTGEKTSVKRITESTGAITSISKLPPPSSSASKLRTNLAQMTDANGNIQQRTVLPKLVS
T17 sequence (P35916 25-1363): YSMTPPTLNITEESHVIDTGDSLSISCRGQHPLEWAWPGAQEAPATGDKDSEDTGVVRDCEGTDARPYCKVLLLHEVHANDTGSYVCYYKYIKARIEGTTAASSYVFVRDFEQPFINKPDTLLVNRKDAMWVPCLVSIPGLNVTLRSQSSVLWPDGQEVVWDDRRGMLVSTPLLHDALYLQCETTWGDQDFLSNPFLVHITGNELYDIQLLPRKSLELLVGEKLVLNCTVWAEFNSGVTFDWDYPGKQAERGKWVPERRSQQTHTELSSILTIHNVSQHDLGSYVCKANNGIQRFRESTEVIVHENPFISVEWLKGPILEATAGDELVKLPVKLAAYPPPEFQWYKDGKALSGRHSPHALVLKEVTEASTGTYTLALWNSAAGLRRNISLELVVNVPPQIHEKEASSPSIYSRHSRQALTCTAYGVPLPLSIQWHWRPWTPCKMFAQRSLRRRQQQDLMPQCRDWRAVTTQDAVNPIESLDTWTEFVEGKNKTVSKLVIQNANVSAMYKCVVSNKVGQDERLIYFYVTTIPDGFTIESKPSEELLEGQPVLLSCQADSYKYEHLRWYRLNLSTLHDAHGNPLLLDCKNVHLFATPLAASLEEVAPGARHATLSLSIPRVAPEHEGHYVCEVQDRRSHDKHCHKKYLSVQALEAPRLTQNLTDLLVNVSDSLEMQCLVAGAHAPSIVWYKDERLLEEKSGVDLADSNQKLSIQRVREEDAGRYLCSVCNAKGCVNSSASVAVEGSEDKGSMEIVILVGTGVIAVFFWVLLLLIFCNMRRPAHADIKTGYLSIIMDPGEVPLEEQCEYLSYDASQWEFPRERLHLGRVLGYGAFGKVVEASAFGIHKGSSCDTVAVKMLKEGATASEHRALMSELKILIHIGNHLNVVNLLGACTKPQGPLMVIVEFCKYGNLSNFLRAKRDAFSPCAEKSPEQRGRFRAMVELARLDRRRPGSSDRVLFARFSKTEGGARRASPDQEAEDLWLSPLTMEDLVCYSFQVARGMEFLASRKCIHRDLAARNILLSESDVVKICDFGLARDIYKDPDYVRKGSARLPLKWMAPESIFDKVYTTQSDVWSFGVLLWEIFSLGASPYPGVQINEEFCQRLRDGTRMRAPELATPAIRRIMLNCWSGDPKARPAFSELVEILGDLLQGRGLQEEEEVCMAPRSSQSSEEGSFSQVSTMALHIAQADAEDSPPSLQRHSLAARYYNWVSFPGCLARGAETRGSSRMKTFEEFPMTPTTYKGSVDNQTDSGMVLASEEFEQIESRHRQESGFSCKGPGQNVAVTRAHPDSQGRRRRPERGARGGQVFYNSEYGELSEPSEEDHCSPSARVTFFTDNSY
T4 sequence (P50750 whole entry): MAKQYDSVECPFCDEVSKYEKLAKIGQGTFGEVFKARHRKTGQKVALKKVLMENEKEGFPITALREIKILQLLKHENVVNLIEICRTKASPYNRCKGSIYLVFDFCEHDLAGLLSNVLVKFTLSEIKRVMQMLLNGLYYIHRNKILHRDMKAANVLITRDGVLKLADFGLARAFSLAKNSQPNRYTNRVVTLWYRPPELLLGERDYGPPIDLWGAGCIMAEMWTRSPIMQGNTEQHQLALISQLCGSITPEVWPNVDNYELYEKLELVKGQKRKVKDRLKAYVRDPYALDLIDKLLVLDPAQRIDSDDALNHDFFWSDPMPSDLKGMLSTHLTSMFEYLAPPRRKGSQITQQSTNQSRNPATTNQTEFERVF
T4 sequence (O60563 whole entry partner): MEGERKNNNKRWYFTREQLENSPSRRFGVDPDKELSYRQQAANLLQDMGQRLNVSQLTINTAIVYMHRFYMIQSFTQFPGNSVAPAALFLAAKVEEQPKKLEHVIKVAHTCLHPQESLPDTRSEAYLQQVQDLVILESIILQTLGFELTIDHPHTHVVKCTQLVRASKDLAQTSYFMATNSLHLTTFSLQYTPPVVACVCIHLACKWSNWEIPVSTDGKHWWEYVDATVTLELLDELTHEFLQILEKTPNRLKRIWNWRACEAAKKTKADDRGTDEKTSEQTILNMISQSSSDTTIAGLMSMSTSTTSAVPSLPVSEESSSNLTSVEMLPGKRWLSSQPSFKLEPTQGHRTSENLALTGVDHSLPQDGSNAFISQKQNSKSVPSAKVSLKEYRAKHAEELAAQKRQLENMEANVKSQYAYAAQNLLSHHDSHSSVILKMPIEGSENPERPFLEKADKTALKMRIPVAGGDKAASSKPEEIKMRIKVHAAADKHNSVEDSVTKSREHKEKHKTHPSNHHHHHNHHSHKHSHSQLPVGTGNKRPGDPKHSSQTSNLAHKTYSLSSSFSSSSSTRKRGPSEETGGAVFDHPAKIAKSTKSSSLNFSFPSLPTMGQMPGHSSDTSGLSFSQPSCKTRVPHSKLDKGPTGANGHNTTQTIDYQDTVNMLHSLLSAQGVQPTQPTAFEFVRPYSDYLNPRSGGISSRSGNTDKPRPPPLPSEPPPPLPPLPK

Avg POC (p38gamma): 120.5% of control
Avg POC (TEC Activated): 94% of control
Avg POC (CLK2): 116% of control
Avg POC (CDK9/cyclinT1): 111.5% of control
Avg POC (PAK6): 94% of control
Avg POC (CDK1/cyclinB): 106% of control
Avg POC (TSSK1): 99.5% of control
Avg POC (CDK6/cyclinD3): 112.5% of control
Avg POC (JNK2alpha2): 93.5% of control
Avg POC (Lck): 102% of control
Avg POC (AURKA): 133% of control
Avg POC (mTOR/FKBP12): 111.5% of control
Avg POC (MuSK): 107.5% of control
Avg POC (GSK3alpha): 120.5% of control
Avg POC (FGFR1): 98% of control
Avg POC (DYRK2): 103.5% of control
Avg POC (Flt4): 103% of control
Avg POC (HIPK1): 119.5% of control
Avg POC (MKK6): 121% of control
Avg POC (EphA3): 112% of control
Avg POC (CAMK2d): 99% of control
Avg POC (EphA1): 113.5% of control
Avg POC (MSK2): 103.5% of control
Avg POC (DDR2): 101.5% of control
Avg POC (ErbB4): 97% of control
Avg POC (CAMK4): 101.5% of control
Avg POC (PKCiota): 120% of control
Avg POC (STK33): 110% of control
Avg POC (Rse): 117% of control
Avg POC (GRK5): 106.5% of control
Avg POC (JNK3): 106% of control
Avg POC (PRK2): 111% of control
Avg POC (Syk): 86.5% of control
Avg POC (TAO2): 100.5% of control
Avg POC (KDR): 104% of control
Avg POC (CDK2/cyclinA): 110% of control
Avg POC (CHK2): 107.5% of control
Avg POC (ROCK-II): 104.5% of control
Avg POC (Plk3): 113.5% of control
Avg POC (eEF-2K): 116.5% of control
Avg POC (ITK): 170.5% of control
SMILES: COCCN1C[C@@H](NC(=O)Nc2sc(C(C)C)nc2-c2ccccc2)[C@H](c2ccccc2)C1 [Example 48, 1-(2-isopropyl-4-phenylthiazol-5-yl)-3-((3S,4R)-1-(2-methoxyethyl)-4-phenylpyrrolidin-3-yl)urea]

Source: patent US9828360B2 (Array BioPharma Inc., priority 2012, dated 2017)
